What all share (experiment): NCI tumour cell line growth inhibition, 48 h
Experiment [1] deals with CAKI-1 renal.
Experiment [2] deals with HL-60(TB) leukemia.
Experiment [3] deals with HT29 colon.
For experiment [4], the system named is IGROV1 ovarian.
In experiment [5] the test system is M14 melanoma.
For experiment [6], the system named is OVCAR-4 ovarian.
Experiment [7] has as its system RXF 393 renal.
Experiment [8] concerns SF-268 CNS.
Experiment [9] relates to SW-620 colon.
Experiment [10] deals with UO-31 renal.

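Protocol summary: plate cells (96-well), add compound at 5 concentrations, incubate 48 h, interpolate endpoints linearly. TGI is the concentration that stops growth completely.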

`COc1ccc(C(OCC2OC(n3ccc(NC(=O)c4ccccc4)nc3=O)C(O)C2O)(c2ccccc2)c2ccccc2)cc1` (stereo not given): the TGI in experiment [1] is 5.79 µM; in experiment [2] it was 4.36 µM; in experiment [3], 3.04 µM; in experiment [4] it was 3.86 µM; in [5] it was 3.62 µM; in experiment [6], 6.04 µM. The TGI in experiment [7] was 10.8 µM; in [8] it was 19.8 µM; in experiment [9], 5.8 µM; in experiment [10] it was 11.4 µM.

The values above are taken from PubChem BioAssay (NCI).
